# Measured values taken from patent US4107424A, “1-N-[(S)-α-hydroxy-ω-aminoacyl] derivatives of 3',4'-dideoxykanamycin B and 3'-deoxykanamycin B antibiotics” (Zaidan Hojin Biseibutsu Kagaku Kenkyu Kai, priority 1972, dated 1978).
# Like-named read-outs stand apart in the source and are kept apart here.
# Experiments:
# [1] = tested on: Escherichia coli K-12 R-5; experiment: Minimal inhibitory concentration, agar dilution streak method; assay type: cell-based; details: K12R5, nutrient agar, 37° C, 18 hours
# Description: (§1) [α]D^22 + 38°, (c 0.85, water).
# (§2) *Agar Agar dilution streak method (nutrient agar, 37° C, 18 hours)
# (§3) *Agar dilution streak method (nutrient agar, 37° C, 18 hours).
# Escherichia coli NIHJ = experiment: as above; assay type: cell-based; details: nutrient agar, 37° C, 18 hours
# Description: as §1, §2, §3
# [2] = tested on: Pseudomonas aeruginosa 99; experiment: as above; assay type: cell-based; details: nutrient agar, 37° C, 18 hours
# Description: as §1, §2, §3
# Salmonella typhosa T-63 = experiment: as above; assay type: cell-based; details: Salmonella enterica, nutrient agar, 37° C, 18 hours
# Description: as §1, §2, §3
# Sarcina lutea PCI 1001 = experiment: as above; assay type: cell-based; details: Micrococcus luteus, PCI1001, 18 h, read-out: Minimal inhibitory concentration
# Description: as §1, §2, §3
# [3] = tested on: Escherichia coli K-12 JR 66/W 677; experiment: as above; assay type: cell-based; details: Escherichia coli, 18 h
# Description: as §2, §3
# [4] = tested on: Escherichia coli K-12 LA 290 R 55; experiment: as above; assay type: cell-based; details: 18 h
# Description: as §2, §3
# [5] = tested on: Escherichia coli K-12 LA 290 R 56; experiment: as above; assay type: cell-based; details: 18 h
# Description: as §2, §3
# [6] = tested on: Escherichia coli K-12 LA 290 R 64; experiment: as above; assay type: cell-based; details: nutrient agar, 37° C, 18 hours
# Description: as §2, §3
# [7] = tested on: Escherichia coli K-12 ML 1410 R 81; experiment: as above; assay type: cell-based; details: 18 h
# Description: as §2, §3
# [8] = tested on: Escherichia coli K-12 ML 1410; experiment: as above; assay type: cell-based; details: K12ML1410, nutrient agar, 37° C, 18 hours
# Description: as §2, §3
# [9] = tested on: Escherichia coli K-12 ML 1629; experiment: as above; assay type: cell-based; details: K12ML1629, nutrient agar, 37° C, 18 hours
# Description: as §2, §3
# [10] = tested on: Escherichia coli K-12 ML 1630; experiment: as above; assay type: cell-based; details: K12ML1630, nutrient agar, 37° C, 18 hours
# Description: as §2, §3
# [11] = tested on: Escherichia coli K-12 W 677; experiment: as above; assay type: cell-based; details: K12W677, nutrient agar, 37° C, 18 hours
# Description: as §2, §3
# Escherichia coli K-12 = experiment: as above; assay type: cell-based; details: K12, nutrient agar, 37° C, 18 hours
# Description: as §2, §3
# [12] = tested on: Klebsiella pneumoniae type 22 #3038; experiment: as above; assay type: cell-based; details: Klebsiella pneumoniae; nutrient agar, 37° C, 18 hours
# Description: as §2, §3
# [13] = tested on: Pseudomonas aeruginosa A 3; experiment: as above; assay type: cell-based; details: A3, nutrient agar, 37° C, 18 hours
# Description: as §2, §3
# [14] = tested on: Pseudomonas aeruginosa GN 315; experiment: as above; assay type: cell-based; details: GN315, nutrient agar, 37° C, 18 hours, read-out: Minimal inhibitory concentration
# Description: as §2, §3
# [15] = tested on: Pseudomonas aeruginosa No.12; experiment: as above; assay type: cell-based; details: nutrient agar, 37° C, 18 hours
# Description: as §2, §3
# [16] = tested on: Pseudomonas aeruginosa TI-13; experiment: as above; assay type: cell-based; details: TI13, nutrient agar, 37° C, 18 hours
# Description: as §2, §3
# [17] = tested on: Staphylococcus aureus FDA 209P; experiment: as above; assay type: cell-based; details: FDA209P, nutrient agar, 37° C, 18 hours
# Description: as §2, §3
# [18] = tested on: Mycobacterium smegmatis ATCC 607; experiment: as above; assay type: cell-based; details: Mycolicibacterium smegmatis, ATCC607; nutrient agar, 37° C, 18 hours; read-out: Minimum inhibitory concentrations
# [19] = tested on: Staphylococcus aureus Smith; experiment: Minimum inhibitory concentration, serial dilution method; assay type: cell-based; details: 18 h, read-out: Minimum inhibitory concentrations
# [20] = tested on: Staphylococcus aureus Terajima; experiment: as above; assay type: cell-based; details: 18 h, read-out: Minimum inhibitory concentrations
# Bacillus anthracis = experiment: microbe, parasite or virus in culture; assay type: cell-based; details: 18 h, read-out: Minimum inhibitory concentrations
# [21] = tested on: Bacillus subtilis PCI 219; experiment: Minimum inhibitory concentration, serial dilution method; assay type: cell-based; details: PCI219, 18 h, read-out: Minimum inhibitory concentrations
# [22] = tested on: Bacillus cereus ATCC 10702; experiment: as above; assay type: cell-based; details: ATCC10702, nutrient agar, 37° C, 18 hours, read-out: Minimum inhibitory concentrations
# [23] = tested on: Corynebacterium bovis 1810; experiment: as above; assay type: cell-based; details: Corynebacterium bovis, 1810, 18 h, read-out: Minimum inhibitory concentrations
# [24] = tested on: Shigella dysenteriae JS 11910; experiment: as above; assay type: cell-based; details: JS11910, 18 h, read-out: Minimum inhibitory concentrations
# [25] = tested on: Shigella flexneri 4b JS 11811; experiment: as above; assay type: cell-based; details: 4BJS11811, nutrient agar, 37° C, 18 hours, read-out: Minimum inhibitory concentrations
# Shigella sonnei JS 11746 = experiment: as above; assay type: cell-based; details: JS11746, nutrient agar, 37° C, 18 hours, read-out: Minimum inhibitory concentrations
# [26] = tested on: Salmonella enteritidis 1891; experiment: as above; assay type: cell-based; details: Salmonella enterica, nutrient agar, 37° C, 18 hours, read-out: Minimum inhibitory concentrations
# Proetus vulgaris OX 19 = experiment: as above; assay type: cell-based; details: nutrient agar, 37° C, 18 hours; read-out: Minimum inhibitory concentrations
# [27] = tested on: Klebsiella pneumoniae PCI 1602; experiment: as above; assay type: cell-based; details: PCI1602, 18 h, read-out: Minimum inhibitory concentrations
# nucleotidyl-transferase = details: adenylylation of 2"-hydroxyl group with ATP; cited from earlier work
# [28] = read-out: Minimal inhibitory concentration
# [29] = read-out: minimum inhibitory concentrations
structure (smiles),measurement,setting,value
"NC[C@H]1O[C@H](O[C@H]2[C@H](O)[C@@H](O[C@H]3O[C@H](CO)[C@@H](O)[C@H](N)[C@H]3O)[C@H](N)C[C@@H]2N)[C@H](N)[C@@H](O)[C@@H]1O [Kanamycin B, kanamycin B]",MIC,[1],1.56 µg/mL
same,MIC,Escherichia coli NIHJ,0.78 µg/mL
same,MIC,[2]; [28],> 100 µg/mL
same,MIC,Salmonella typhosa T-63,0.2 µg/mL
same,MIC,Sarcina lutea PCI 1001,1.56 µg/mL
same,MIC,[3]; [28],> 100 µg/mL
same,MIC,[4]; [28],12.5 µg/mL
same,MIC,[5]; [28],3.13 µg/mL
same,MIC,[6]; [28],3.13 µg/mL
same,MIC,[7]; [28],> 100 µg/mL
same,MIC,[8]; [28],0.78 µg/mL
same,MIC,[9]; [28],> 100 µg/mL
same,MIC,[10]; [28],> 100 µg/mL
same,MIC,[11]; [28],0.39 µg/mL
same,MIC,Escherichia coli K-12; [28],0.78 µg/mL
same,MIC,[12],> 100 µg/mL
same,MIC,[13]; [28],50 µg/mL
same,MIC,[14],> 100 µg/mL
same,MIC,[15]; [28],12.5 µg/mL
same,MIC,[16]; [28],100 µg/mL
same,MIC,[17]; [28],0.39 µg/mL
same,MIC,[18],0.78 µg/mL
same,MIC,[19],< 0.2 µg/mL
same,MIC,[20],< 0.2 µg/mL
same,MIC,Bacillus anthracis,< 0.2 µg/mL
same,MIC,[21],< 0.2 µg/mL
same,MIC,[22],0.78 µg/mL
same,MIC,[23],1.56 µg/mL
same,MIC,[24],3.13 µg/mL
same,MIC,[25],3.13 µg/mL
same,MIC,Shigella sonnei JS 11746,1.56 µg/mL
same,MIC,[26],1.56 µg/mL
same,MIC,Proetus vulgaris OX 19,0.78 µg/mL
same,MIC,[27],0.78 µg/mL
"NC[C@H]1O[C@H](O[C@H]2[C@H](O)[C@@H](O[C@H]3O[C@H](CO)[C@@H](O)[C@H](N)[C@H]3O)[C@H](N)C[C@@H]2N)[C@H](O)[C@@H](O)[C@@H]1O [Kanamycin, kanamycin]",MIC,[2]; [29],> 100 µg/mL
same,MIC,[3]; [29],> 100 µg/mL
same,MIC,[4]; [29],100 µg/mL
same,MIC,[5]; [29],12.5 µg/mL
same,MIC,[6]; [29],12.5 µg/mL
same,MIC,[7]; [29],> 100 µg/mL
same,MIC,[8]; [29],1.56 µg/mL
same,MIC,"[9]; drug-resistant strain, read-out: minimum inhibitory concentrations",> 100 µg/mL
same,MIC,[10]; [29],> 100 µg/mL
same,MIC,[11]; [29],1.56 µg/mL
same,MIC,Escherichia coli K-12; [29],0.78 µg/mL
same,MIC,[13]; [29],> 100 µg/mL
same,MIC,[15]; [29],50 µg/mL
same,MIC,[16]; [29],> 100 µg/mL
same,MIC,[17]; [29],3.12 µg/mL
same,inactivation by nucleotidyl-transferase,nucleotidyl-transferase,inactivate
